Test results published in US20250320227A1, “MACROCYCLIC OREXIN RECEPTOR AGONISTS AND USES THEREOF” (Jazz Pharmaceuticals Ireland Limited, priority 2022, published 2025).

These compounds were tested against T1, human recombinant OX2 (hOX2) receptors expressed in CHO cells (Homo sapiens, UniProt O43614) (assay: IP-1 accumulation assay (IP-One HTRF) in hOX2-CHO cells). Conditions: 60 min incubation at 37° C., mean of at least two independent experiments, read-out: EC50_OX2R Category.
T1 construct: host or cells: CHO cells (hOX2-CHO)
T1 sequence (O43614 1-444): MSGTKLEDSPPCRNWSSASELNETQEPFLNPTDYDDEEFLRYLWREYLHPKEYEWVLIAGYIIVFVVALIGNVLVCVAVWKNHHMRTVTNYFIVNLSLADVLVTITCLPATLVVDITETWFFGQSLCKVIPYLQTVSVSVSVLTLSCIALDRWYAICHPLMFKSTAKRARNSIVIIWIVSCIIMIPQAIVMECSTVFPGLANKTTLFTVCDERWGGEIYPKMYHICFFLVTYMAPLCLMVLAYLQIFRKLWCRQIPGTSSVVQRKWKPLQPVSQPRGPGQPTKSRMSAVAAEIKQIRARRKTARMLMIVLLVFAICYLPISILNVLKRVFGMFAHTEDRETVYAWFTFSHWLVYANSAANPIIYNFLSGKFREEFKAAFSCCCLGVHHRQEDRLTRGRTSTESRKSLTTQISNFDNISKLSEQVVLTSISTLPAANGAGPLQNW
Format: cell-based
Protocol: The accumulation of Inositol-1 Monophosphate (IP-1) was measured using IP-One HTRF® Terbium cryptate based assay (Cisbio) in human recombinant OX1 (hOX1) and at OX2 (hOX2) receptors expressed in CHO cells (DiscoverX) according to the manufacturer's instructions for cells tested in suspension.
hOX1-CHO and hOX2-CHO cells were seeded into white 384-well plates at a density of 20,000 cells/well in Hank's Balanced Salt Solution (HBSS) containing 20 mM HEPES pH 7.4, 50 mM, LiCl and 0.1% and Bovine Serum Albumin (BSA).
Compounds of disclosure were tested in an 11 points concentration response curve (CRC) serially diluted in neat DMSO at 200 fold concentrations and added by Echo acoustic liquid handling (Labcyte) to the cells (0.5% DMSO final in the assay). After 60 min of incubation at 37° C. detection reagents, IP1-d2 tracer and anti-IP1-cryptate were diluted in lysis buffer according to the manufacturer's descriptions and added to the cells.
Following 60 min incubation at room temperature, time-resolved fluorescence (HTRF) was measured at 615 nm and 665 nm by Envision Multilabel reader (Perkin Elmer) and the HTRF ratio (A665/A615×10^4) was calculated.
The IP-1 accumulation response was expressed as percentage of the maximal OX-A response.
Curve fitting and EC50 estimations were carried out using a four-parameter logistic model using XLfit Software. Mean data of EC50 are calculated from at least two independent experiments performed in duplicates

SMILES | EC50 [nM]
O=C1COCC2(CCN3C(=O)CC(C(F)(F)F)Oc4ccccc4[C@H]4CC[C@H](CC4)OCC32)N1 (relative stereo) [Example 6, rel-(1′s,3S,16′R,19′s)-9′-(trifluoromethyl)-8′,18′-dioxa-12′-azaspiro[morpholine-3,15′-tetracyclo[17.2.2.0^2,70.0^12,16]tricosane]-2′(7′),3′,5′-triene-5,11′-dione] | 1000 to 10000
C[C@@H]1CC2(COCC(=O)N2)C2CO[C@H]3CC[C@H](CC3)c3ccccc3OCCC(=O)N21 (relative stereo) [Example 13, rel-(1′s,3S, 13′R,16′R,19′s)-13′-methyl-8′,18′-dioxa-12′-azaspiro[morpholine-3,15′-tetracyclo[17.2.2.0^2,70.0^12,16]tricosane]-2′(7′),3′,5′-triene-5,11′-dione] | < 100
O=C1COc2ccccc2[C@H]2CC[C@H](CC2)OC[C@@H]2N1CCC[C@@]21CO[C@](F)(C(F)(F)F)C(=O)N1 (relative stereo) [Example 71a, rel-(1′s,3S,16′R,19′s)-6 (R)-fluoro-6-(trifluoromethyl)-8′,18′-dioxa-11′-azaspiro[morpholine-3,15′-tetracyclo[17.2.2.0^2,70.0^11,16]tricosane]-2′(7′),3′,5′-triene-5,10′-dione] | < 100
O=C1COC[C@]2(CCN3C(=O)CCOc4ccccc4[C@H]4CC[C@H](CC4)OC[C@@H]32)N1 (single isomer, unassigned) [Example 1b] | > 10000
C[C@H]1CC(=O)N2CC[C@]3(COCC(=O)N3)[C@H]2CO[C@H]2CC[C@H](CC2)c2ccccc2O1 (single isomer, unassigned) [Example 4a] | > 10000
C[C@@H]1CC(=O)N2CC[C@@]3(COCC(=O)N3)[C@@H]2CO[C@H]2CC[C@H](CC2)c2ccccc2O1 (single isomer, unassigned) [Example 4c] | 100 to 1000
C[C@@H]1CC(=O)N2CC[C@]3(COCC(=O)N3)[C@H]2CO[C@H]2CC[C@H](CC2)c2ccccc2O1 (single isomer, unassigned) [Example 4d] | > 10000
C[C@@H]1C[C@@]2(COCC(=O)N2)[C@@H]2CO[C@H]3CC[C@H](CC3)c3ccccc3OCCC(=O)N12 (single isomer, unassigned) [Example 13a] | < 100
C[C@@H]1C[C@]2(COCC(=O)N2)[C@H]2CO[C@H]3CC[C@H](CC3)c3ccccc3OCCC(=O)N12 (single isomer, unassigned) [Example 13b] | 100 to 1000
C[C@@H]1C[C@@]2(COCC(=O)N2)[C@@H]2CO[C@H]3CC[C@H](CC3)c3cc(F)cc(F)c3OCC(=O)N12 (single isomer, unassigned) [Example 16a] | < 100
C[C@@H]1C[C@]2(COCC(=O)N2)[C@H]2CO[C@H]3CC[C@H](CC3)c3cc(F)cc(F)c3OCC(=O)N12 (single isomer, unassigned) [Example 16b] | > 10000
C[C@@H]1C[C@]2(COCC(=O)N2)[C@H]2CO[C@H]3CC[C@H](CC3)c3c(F)cccc3OCC(=O)N12 (single isomer, unassigned) [Example 17b] | 1000 to 10000
C[C@@H]1C[C@]2(COCC(=O)N2)[C@H]2CO[C@H]3CC[C@H](CC3)c3cc(F)ccc3OCC(=O)N12 (single isomer, unassigned) [Example 18b] | > 10000
C[C@@H]1C[C@]2(COCC(=O)N2)[C@H]2CO[C@H]3CC[C@H](CC3)c3cccc(Cl)c3OCC(=O)N12 (single isomer, unassigned) [Example 20b] | > 10000

Now from value to compound:

EC50 [nM] | SMILES
> 10000 | O=C1COCC2(CCCN3C(=O)OCCOc4ccccc4-c4cccc(c4F)CC32)N1 (racemic) [Example 65, Rel-(3S, 18′S)-24′-fluoro-8′,11′-dioxa-13′-azaspiro[morpholine-3,17′-tetracyclo[18.3.1.0^2,70.0^13,18]tetracosane]-1′(24′),2′(7′),3′,5′,20′,22′-hexaene-5,12′-dione]
100 to 1000 | O=C1CCC2(CCCN3C(=O)COc4ccccc4[C@H]4CC[C@H](CC4)OCC32)N1 (mixture of isomers) [Example 69, Rel-(1′s,2R,16′R,19′s)-8′,18′-dioxa-11′-azaspiro[pyrrolidine-2,15′-tetracyclo-[17.2.2.0^2,70.0^11,16]tricosane]-2′(7′),3′,5′-triene-5,10′-dione]
100 to 1000 | O=C1COc2ccccc2[C@H]2CC[C@H](CC2)OCC2N1CCCC21COC(C(F)(F)F)N1 (mixture of isomers) [Example 70, Rel-(1′s,3S,16′R,19′s)-5-(trifluoromethyl)-8′,18′-dioxa-11′-azaspiro[1,4-oxazolidine-3,15′-tetracyclo[17.2.2.0^2,70.0^11,16]tricosane]-2′(7′),3′,5′-trien-10′-one]
< 100 | O=C1COCC2(CCCN3C(=O)C4(CC4)COc4cccc(F)c4[C@H]4CC[C@H](CC4)OCC32)N1 (mixture of isomers) [Example 72, (1′s,20′s)-3′-fluorodispiro [cyclopropane-1,10′-[8,19]dioxa-[12]azatetracyclo [18.2.2.0^2,^7.0^12,^17]tetracosane-16′,3″- morpholine]-2′,4′,6′-triene-5″,11′-dione]
< 100 | O=C1COCC2(CCCN3C(=O)CCCCOc4cccc(n4)[C@H]4CC[C@H](CC4)OCC32)N1 (mixture of isomers) [Example 76, (1′s,21′s)-7′,20′-dioxa-13′,26′-diazaspiro[morpholine-3,17′-tetracyclo[19.2.2.1^2,60.0^13,18]hexacosane]-2′,4′,6′(26′)-triene-5,12′-dione]
100 to 1000 | CC1CC(=O)N2CCC3(COCC(=O)N3)C2CO[C@H]2CC[C@H](CC2)c2ccccc2O1 (relative stereo) [Example 4, rel-(1′s,3S,16′R,19′s)-9′-methyl-8′,18′-dioxa-12′-azaspiro[morpholine-3,15′-tetracyclo[17.2.2.0^2,70.0^12,16]tricosane]-2′(7′),3′,5′-triene-5,11′-dione]
< 100 | O=C1NC2(CCN3C(=O)CCOc4ccccc4[C@H]4CC[C@H](CC4)OCC32)COC1F (relative stereo) [Example 8, rel-(1′s,3S,16′R,19′s)-6-fluoro-8′,18′-dioxa-12′-azaspiro[morpholine-3,15′-tetracyclo[17.2.2.0^2,70.0^12,16]tricosane]-2′(7′),3′,5′-triene-5,11′-dione]
< 100 | O=C1COC[C@@]2(CCN3C(=O)CCOc4ccccc4[C@H]4CC[C@H](CC4)OC[C@H]32)N1 (single isomer, unassigned) [Example 1a]
100 to 1000 | C[C@H]1CC(=O)N2CC[C@@]3(COCC(=O)N3)[C@@H]2CO[C@H]2CC[C@H](CC2)c2ccccc2O1 (single isomer, unassigned) [Example 4b, (1′s, 3S,9′S,16′R,19′s)-9′-methyl-8′,18′-dioxa-12′-azaspiro[morpholine-3,15′-tetracyclo[17.2.2.0^2,70.0^12,16]tricosane]-2′(7′),3′,5′-triene-5,11′-dione]
> 10000 | C[C@@H]1COc2ccccc2[C@H]2CC[C@H](CC2)OC[C@H]2N(CC[C@]23COCC(=O)N3)C1=O (single isomer, unassigned) [Example 5a]
> 10000 | C[C@H]1COc2ccccc2[C@H]2CC[C@H](CC2)OC[C@H]2N(CC[C@]23COCC(=O)N3)C1=O (single isomer, unassigned) [Example 5b]
< 100 | O=C1COC[C@@]2(CCN3C(=O)CCOc4cccc(F)c4[C@H]4CC[C@H](CC4)OC[C@H]32)N1 (single isomer, unassigned) [Example 10a]
> 10000 | O=C1COC[C@]2(CCN3C(=O)CCOc4cccc(F)c4[C@H]4CC[C@H](CC4)OC[C@@H]32)N1 (single isomer, unassigned) [Example 10b]
< 100 | C[C@@H]1C[C@@]2(COCC(=O)N2)[C@@H]2CO[C@H]3CC[C@H](CC3)c3cccc(F)c3OCC(=O)N12 (single isomer, unassigned) [Example 15a]
1000 to 10000 | C[C@@H]1C[C@]2(COCC(=O)N2)[C@H]2CO[C@H]3CC[C@H](CC3)c3cccc(F)c3OCC(=O)N12 (single isomer, unassigned) [Example 15b]
< 100 | C[C@@H]1C[C@@]2(COCC(=O)N2)[C@@H]2CO[C@H]3CC[C@H](CC3)c3cc(F)ccc3OCC(=O)N12 (single isomer, unassigned) [Example 18a]
< 100 | C[C@@H]1C[C@@]2(COCC(=O)N2)[C@@H]2CO[C@H]3CC[C@H](CC3)c3ccc(F)cc3OCC(=O)N12 (single isomer, unassigned) [Example 19a]
1000 to 10000 | C[C@@H]1C[C@@]2(COCC(=O)N2)[C@@H]2CO[C@H]3CC[C@H](CC3)c3cccc(Cl)c3OCC(=O)N12 (single isomer, unassigned) [Example 20a]
